The results in this text go back to US20150284335A1, “Benzoimidazoles as prolyl hydroxylase inhibitors” (Janssen Pharmaceutica NV, priority 2008, published 2015).

Marks after values point to notes of the source that are not given here.

One assay addresses T1, PHD2181-417 (Homo sapiens, UniProt Q9GZT9).
T1 construct: histidine tag (N, cleaved yes); Smt3 (SUMO) tag (N, cleaved yes); made in house; host or cells: E. coli BL21 (pBAD vector)
Kind of assay: PHD enzyme activity assay ([14C]-succinic acid production).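 Note: enzyme expressed in E. coli BL21, assayed in Tris-HCl pH 7.5 with catalase, DTT and ascorbate, [14C]-succinic acid beta-counted after DNP precipitation of residual 2-oxoglutarate.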 The following applies: inhibition of PHD2181-417 activity; HIF-1α peptide 10 μM, [5-14C]-2-oxoglutaric acid, 10 minutes; read-out: Enzyme pIC50 (converted). It is filed as biochemical.

For a further assay, the system named is Hep-3B cells. Kind of assay: Cellular assay: EPO secretion in Hep-3B cells. It is filed as cell-based, human. To be noted: 24 hours, percent of EPO secretion relative to assay control compound.
Where [1] appears, read: final compound concentration 100 μM.

T1 sequence (Q9GZT9 181-417): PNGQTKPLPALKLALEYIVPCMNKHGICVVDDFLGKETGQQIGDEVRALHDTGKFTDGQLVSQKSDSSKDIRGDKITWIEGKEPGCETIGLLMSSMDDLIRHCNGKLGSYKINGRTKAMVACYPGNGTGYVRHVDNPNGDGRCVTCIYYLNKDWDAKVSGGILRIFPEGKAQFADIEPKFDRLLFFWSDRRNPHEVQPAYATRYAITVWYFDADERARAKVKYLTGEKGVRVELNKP

Take `C[C@@H](NC(=O)c1nc2ccc(F)cc2[nH]1)C(=O)O` [Example 11, (R)-2-[(6-Fluoro-1H-benzoimidazole-2-carbonyl)-amino]-propionic acid]: the IC50 on PHD2181-417 is 79.4 µM. Also, the “Cellular % EPO Stimulation” value in the assay on Hep-3B cells (setting [1]) was 23.93%.

Consider `O=C(O)c1cnn(-c2nc3cc(-c4cccc(OCc5ccc(Cl)cc5)c4)ccc3[nH]2)c1` [Example 45, 1-{5-[3-(4-Chloro-benzyloxy)-phenyl]-1H-benzoimidazol-2-yl}-1H-pyrazole-4-carboxylic acid], for which, at PHD2181-417, the IC50 was 0.0398 µM. In addition, the “Cellular % EPO Stimulation” value in the assay with Hep-3B cells (setting [1]) came to 2.10%.

In the case of `O=C(O)CNC(=O)c1nc2cc(I)ccc2[nH]1` [Example 8, [(5-Iodo-1H-benzoimidazole-2-carbonyl)-amino]-acetic acid], on PHD2181-417, the IC50 was 39.8 µM. Moreover, the “Cellular % EPO Stimulation” value in the assay on Hep-3B cells (setting [1]) is listed as 3.80%.

In the case of `O=C(O)c1cnn(-c2nc3cc(-c4cccc(C(F)(F)F)c4)ccc3[nH]2)c1` [Example 48, 1-[5-(3-Trifluoromethyl-phenyl)-1H-benzoimidazol-2-yl]-1H-pyrazole-4-carboxylic acid], the IC50 at PHD2181-417 was 0.0794 µM.

On to `O=C(O)CNC(=O)c1nc2cc(-c3cccc(OCc4cccc(Cl)c4)c3)ccc2[nH]1` [Example 13, ({5-[3-(3-Chloro-benzyloxy)-phenyl]-1H-benzoimidazole-2-carbonyl}-amino)-acetic acid], for which the IC50 at PHD2181-417 is 1.58 µM. In addition, the “Cellular % EPO Stimulation” value in the assay on Hep-3B cells (setting [1]) is 1.20%.

Regarding `C[C@@H](NC(=O)c1nc2cc(C(F)(F)F)cc(C(F)(F)F)c2[nH]1)C(=O)O` [Example 52, (R)-2-[(5,7-Bis-trifluoromethyl-1H-benzoimidazole-2-carbonyl)-amino]-propionic acid], the “Cellular % EPO Stimulation” value with Hep-3B cells (setting [1]) is listed as 17.80%.

As for `O=C(NC(CO)C(=O)O)c1nc2ccccc2[nH]1` (stereo in doubt) [Example 51, (R)-2-[(1H-Benzoimidazole-2-carbonyl)-amino]-3-hydroxy-propionic acid], the IC50 on PHD2181-417 was 20 µM. The “Cellular % EPO Stimulation” value with Hep-3B cells (final compound concentration of 10 μM) is given as 0.73* %.

`O=C(O)CNC(=O)c1nc2cc(-c3ccc(OCc4cccc(Cl)c4)c(Cl)c3)ccc2[nH]1` [Example 21, ({5-[3-Chloro-4-(3-chloro-benzyloxy)phenyl]-1H-benzoimidazole-2-carbonyl}-amino)-acetic acid]: the IC50 on PHD2181-417 was 7.94 µM. The “Cellular % EPO Stimulation” value in the assay on Hep-3B cells (setting [1]) was −1.43%.

Turning to `O=C(O)CNC(=O)c1nc2ccc([N+](=O)[O-])cc2[nH]1` [Example 5, [(6-Nitro-1H-benzoimidazole-2-carbonyl)-amino]-acetic acid], the IC50 at PHD2181-417 was 5.01 µM. For the same compound, the “Cellular % EPO Stimulation” value in the assay on Hep-3B cells (setting [1]) was 0.00%.

`Cc1nn(-c2nc3cc(Cl)c(Cl)cc3[nH]2)c(C)c1C(=O)O` [Example 58, 1-(5,6-Dichloro-1H-benzoimidazol-2-yl)-3,5-dimethyl-1H-pyrazole-4-carboxylic acid]: the IC50 on PHD2181-417 was greater than 10 µM.

Consider `C[C@H](NC(=O)c1nc2cc(Cl)c(Cl)cc2[nH]1)C(=O)O` [Example 4, (S)-2-[(5,6-Dichloro-1H-benzoimidazole-2-carbonyl)-amino]-propionic acid], for which the IC50 at PHD2181-417 was 25.1 µM. The “Cellular % EPO Stimulation” value in the assay with Hep-3B cells (setting [1]) is given as 7.70%.

For `O=C(O)CNC(=O)c1nc2cc(-c3cc(C(=O)NCc4ccccc4)ccc3F)ccc2[nH]1` [Example 24, {[5-(5-Benzylcarbamoyl-2-fluoro-phenyl)-1H-benzoimidazole-2-carbonyl]-amino}-acetic acid], the IC50 on PHD2181-417 was 15.8 µM. The “Cellular % EPO Stimulation” value in the assay with Hep-3B cells (setting [1]) was 13.56%.

Consider `O=C(O)c1cnn(-c2nc3cc(Cl)ccc3[nH]2)c1` [Example 61, 1-(5-Chloro-1H-benzoimidazol-2-yl)-1H-pyrazole-4-carboxylic acid], for which the IC50 on PHD2181-417 is 0.501 µM.

`O=C(O)CNC(=O)c1nc2cc(-c3ccc(Oc4ccccc4)cc3)ccc2[nH]1` [Example 18, {[5-(4-Phenoxy-phenyl)-1H-benzoimidazole-2-carbonyl]-amino}-acetic acid]: the IC50 at PHD2181-417 is 7.94 µM. Also, in the assay on Hep-3B cells (setting [1]), the “Cellular % EPO Stimulation” value is recorded as 2.00%.

`O=C(O)CNC(=O)c1nc2ccccc2[nH]1` [Example 1, [(1H-Benzoimidazole-2-carbonyl)-amino]-acetic acid]: the “Cellular % EPO Stimulation” value in the assay on Hep-3B cells (setting [1]) is listed as 23.9%.

In the case of `O=C(O)CNC(=O)c1nc2cc(-c3cc(F)cc(OCc4ccccc4)c3)ccc2[nH]1` [Example 19, {[5-(3-Benzyloxy-5-fluoro-phenyl)-1H-benzoimidazole-2-carbonyl]-amino}-acetic acid], the IC50 at PHD2181-417 is 6.31 µM. Also, the “Cellular % EPO Stimulation” value in the assay with Hep-3B cells (setting [1]) is reported as −3.80%.

Take `O=C(O)c1cnn(-c2nc3cc(Cl)c(Cl)cc3[nH]2)c1` [Example 33, 1-(5,6-Dichloro-1H-benzoimidazol-2-yl)-1H-pyrazole-4-carboxylic acid]: the IC50 on PHD2181-417 is 0.1 µM. For the same compound, the “Cellular % EPO Stimulation” value in the assay on Hep-3B cells (setting [1]) was 168.46%.

On to `O=C(O)CNC(=O)c1nc2cc(-c3cccc(OCc4cccc(F)c4)c3)ccc2[nH]1` [Example 16, ({5-[3-(3-Fluoro-benzyloxy)-phenyl]-1H-benzoimidazole-2-carbonyl}-amino)-acetic acid], for which, on PHD2181-417, the IC50 is 2.51 µM. Moreover, the “Cellular % EPO Stimulation” value in the assay with Hep-3B cells (setting [1]) is 2.10%.

With `Cc1cc2nc(-n3cc(C(=O)O)cn3)[nH]c2cc1C` [Example 36, 1-(5,6-Dimethyl-1H-benzoimidazol-2-yl)-1H-pyrazole-4-carboxylic acid], the IC50 on PHD2181-417 is 0.794 µM.

For `Cc1nn(-c2nc3cc(Br)ccc3[nH]2)c(C)c1C(=O)O` [Example 57, 1-(5-Bromo-1H-benzoimidazol-2-yl)-3,5-dimethyl-1H-pyrazole-4-carboxylic acid], the IC50 at PHD2181-417 was 63.1 µM.

Turning to `O=C(O)c1cnn(-c2nc3cc(-c4ccc(O)cc4)ccc3[nH]2)c1` [Example 59, 1-[5-(4-Hydroxy-phenyl)-1H-benzoimidazol-2-yl]-1H-pyrazole-4-carboxylic acid], the IC50 at PHD2181-417 was 0.251 µM.

In the case of `COc1ccc2nc(C(=O)NCC(=O)O)[nH]c2c1` [Example 12, [(6-Methoxy-1H-benzoimidazole-2-carbonyl)-amino]-acetic acid], in the assay on Hep-3B cells (setting [1]), the “Cellular % EPO Stimulation” value was 0.50%.

Take `O=C(O)c1cnn(-c2nc3cc(-c4cccc(O)c4)ccc3[nH]2)c1` [Example 60, 1-[5-(3-Hydroxy-phenyl)-1H-benzoimidazol-2-yl]-1H-pyrazole-4-carboxylic acid]: at PHD2181-417, the IC50 was 0.316 µM.

Consider `O=C(O)c1cnn(-c2nc3c(Cl)cc(C(F)(F)F)cc3[nH]2)c1` [Example 39, 1-(4-Chloro-6-trifluoromethyl-1H-benzoimidazol-2-yl)-1H-pyrazole-4-carboxylic acid], for which, at PHD2181-417, the IC50 was 0.158 µM.

`O=C(O)c1cnn(-c2nc3cc(-c4cccc(OCc5cccc(Cl)c5)c4)ccc3[nH]2)c1` [Example 43, 1-{5-[3-(3-Chloro-benzyloxy)-phenyl]-1H-benzoimidazol-2-yl}-1H-pyrazole-4-carboxylic acid]: the IC50 on PHD2181-417 was 0.0316 µM.

For the compound `COc1cc2nc(-n3cc(C(=O)O)cn3)[nH]c2cc1OC` [Example 40, 1-(5,6-Dimethoxy-1H-benzoimidazol-2-yl)-1H-pyrazole-4-carboxylic acid], the IC50 at PHD2181-417 is 0.398 µM.

On to `O=C(O)c1cnn(-c2nc3cc(-c4cccc(OCc5ccccc5Cl)c4)ccc3[nH]2)c1` [Example 44, 1-{5-[3-(2-Chloro-benzyloxy)-phenyl]-1H-benzoimidazol-2-yl}-1H-pyrazole-4-carboxylic acid], for which, on PHD2181-417, the IC50 is 0.0251 µM.

On to `O=C(O)c1cn(-c2nc3cc(Br)ccc3[nH]2)nc1C(F)(F)F` [Example 55, 1-(5-Bromo-1H-benzoimidazol-2-yl)-3-trifluoromethyl-1H-pyrazole-4-carboxylic acid], for which the IC50 at PHD2181-417 is greater than 100 µM.

For `O=C(O)c1cnn(-c2nc3cc(-c4ccc(Cl)c(Cl)c4)ccc3[nH]2)c1` [Example 49, 1-[5-(3,4-Dichloro-phenyl)-1H-benzoimidazol-2-yl]-1H-pyrazole-4-carboxylic acid], the IC50 at PHD2181-417 was 0.0794 µM.

`Cc1ccc2[nH]c(-n3cc(C(=O)O)cn3)nc2c1C` [Example 41, 1-(4,5-Dimethyl-1H-benzoimidazol-2-yl)-1H-pyrazole-4-carboxylic acid]: the IC50 at PHD2181-417 is 7.94 µM.

As for `O=C(O)CNC(=O)c1nc2cc(C(F)(F)F)cc(C(F)(F)F)c2[nH]1` [Example 6, [(5,7-Bis-trifluoromethyl-1H-benzoimidazole-2-carbonyl)-amino]-acetic acid], in the assay with Hep-3B cells (setting [1]), the “Cellular % EPO Stimulation” value came to 4.20%.

For `Cc1c(Br)cc2nc(-n3cc(C(=O)O)cn3)[nH]c2c1C` [Example 62, 1-(5-Bromo-6,7-dimethyl-1H-benzoimidazol-2-yl)-1H-pyrazole-4-carboxylic acid], the IC50 at PHD2181-417 was 0.398 µM.

Take `O=C(O)c1cnn(-c2nc3cc(-c4cccc(OCc5ccccc5)c4)ccc3[nH]2)c1` [Example 46, 1-[5-(3-Benzyloxy-phenyl)-1H-benzoimidazol-2-yl]-1H-pyrazole-4-carboxylic acid]: the IC50 at PHD2181-417 was 0.0501 µM.

Consider `O=C(O)c1cn(-c2nc3cc(Cl)c(Cl)cc3[nH]2)nc1C(F)(F)F` [Example 56, 1-(5,6-dichloro-1H-benzoimidazol-2-yl)-3-trifluoromethyl-1H-pyrazole-4-carboxylic acid], for which the IC50 at PHD2181-417 is greater than 10 µM.

As to `O=C(O)CNC(=O)c1nc2ccc(Br)cc2[nH]1` [Example 9, [(6-Bromo-1H-benzoimidazole-2-carbonyl)-amino]-acetic acid], the “Cellular % EPO Stimulation” value with Hep-3B cells (setting [1]) is given as 9.80%.

As to `O=C(O)c1cnn(-c2nc3cc(-c4ccc(OCc5ccccc5)cc4)ccc3[nH]2)c1` [Example 47, 1-[5-(4-Benzyloxy-phenyl)-1H-benzoimidazol-2-yl]-1H-pyrazole-4-carboxylic acid], on PHD2181-417, the IC50 is 0.2 µM.

For `C[C@H](NC(=O)c1nc2cc(C(F)(F)F)cc(C(F)(F)F)c2[nH]1)C(=O)O` [Example 7, (S)-2-[(5,7-Bis-trifluoromethyl-1H-benzoimidazole-2-carbonyl)-amino]-propionic acid], the “Cellular % EPO Stimulation” value in the assay on Hep-3B cells (setting [1]) was 1.60%.
